What all share (format): biochemical
For one assay, the target named is FBXL10 (Homo sapiens (Human), UniProt Q8NHM5). Put plainly: FBXL10 in vitro enzyme inhibition assay (AlphaScreen). The following applies: 0.3 nM FBXL10, H3K36me2-biotin peptide. An excerpt: (§1) This assay determines the ability of a test compound to inhibit FBXL11, FBXL10, and PHF8 demethylase activity. Baculovirus expressed FBXL11 (GenBank Accession #NM_012308, AA1-1162) was purchased from BPS Bioscience (Cat#50102). Baculovirus expressed FBXL10 (GenBank Accession #NM_032590, AA 1-650) was purchased from BPS Bioscience (Cat #50120). Baculovirus expressed PHF8 (GenBank Accession NP_055922.1) was purchased from Active Motif (Cat#31435).
(§2) The ability of test compounds to inhibit the activity of FBXL10 was determined in 384-well plate format under the following reaction conditions: 0.3 nM FBXL10, 30 nM H3K36me2-biotin labeled peptide (Anaspec cat #64442), 0.2 μM alpha-ketoglutaric acid in assay buffer of 50 mM HEPES, pH7.3, 0.005% Brij35, 0.5 mM TCEP, 0.2 mg/ml BSA, 50 μM sodium L-ascorbate, 5 μM ammonium iron(II) sulfate. Reaction product is determined quantitatively by AlphaScreen detection after the addition of detection reagents anti-H3K36me1 antibody, AlphaScreen® Streptavidin-coated Donor beads, and AlphaScreen® Protein A Acceptor beads in 50 mM HEPES, pH7.3, 10 mM NaCl, 0.005% Brij35, 5 mM EDTA, 2 mg/ml BSA to final 10 μg/ml beads.
(§3) The assay reaction was initiated by the following: 3 μl of the mixture of 90 nM H3K36me2-biotin labeled peptide and 0.6 μM alpha-ketoglutaric acid with 3 μl of 11-point serial diluted inhibitor in 3% DMSO are added to each well of 384 well Proxiplate (Perkin Elmer), followed by the addition of 3 μl of 0.9 nM FBXL10 to initiate the reaction. The reaction mixture is incubated at room temperature for 1 hour, and terminated by the addition of 3 μl of appropriate dilution of anti H3K36me1 antibody in 50 mM HEPES, pH7.3, 10 mM NaCl, 0.005% Brij35, 5 mM EDTA, 2 mg/ml BSA. Plates will then incubated at room temperature for 40 minutes, followed by addition of 3 ul of 50 μg/ml AlphaScreen® Streptavidin-coated Donor beads and AlphaScreen® Protein A Acceptor beads in 50 mM HEPES, pH7.3, 10 mM NaCl, 0.005% Brij35, 5 mM EDTA, 2 mg/ml BSA. Plates will then be read by EnVision Multilabel Reader in AlphaScreen mode after minimum 2 hour incubation at room temperature. The AlphaScreen signal for each well is used to determine inhibition constant (IC50).
(§4) The ability of the compounds disclosed herein to inhibit demethylase activity was quantified and the respective IC50 value was determined.
A general note: In Alpha technology, singlet oxygen from a donor bead excites a nearby acceptor bead.

For a further assay, the target named is FBXL11 (Homo sapiens (Human), UniProt Q9Y2K7). Put plainly: FBXL11 in vitro enzyme inhibition assay (AlphaScreen). Conditions: 0.15 nM FBXL11, H3K36me2-biotin peptide.
Source text: as §1
as §2, with “FBXL11” for “FBXL10”, “0.15” for “0.3”, “FBXL11,” for “FBXL10,”
as §3, with “0.45” for “0.9”, “FBXL11” for “FBXL10”
The ability of the compounds disclosed herein to inhibit demethylase activity was quantified and the respective IC50 value was determined. Table 3 provides the IC50 values of various compounds disclosed herein.

The target in a further assay is PHF8 (Homo sapiens (Human), UniProt Q9UPP1). Kind of assay: PHF8 in vitro enzyme inhibition assay (TR-FRET). The following applies: 3 nM PHF8, H3K9me1-biotin peptide.
Source text: as §1
The ability of test compounds to inhibit the activity of PHF8 was determined in 384-well plate format under the following reaction conditions: 3 nM PHF8, 200 nM H3K9me1-biotin labeled peptide (Anaspec cat #64358), 0.5 μM alpha-ketoglutaric acid in assay buffer of 50 mM HEPES, pH7.3, 0.005% Brij35, 0.5 mM TCEP, 0.2 mg/ml BSA, 50 μM sodium L-ascorbate, and 5 μM ammonium iron(II) sulfate. Reaction product was determined quantitatively by TR-FRET after the addition of detection reagent Phycolink Streptavidin-allophycocyanin (Prozyme) and Europium-anti-unmodified-histone H3 lysine 9/lysine27 (H3K9/K27) antibody (PerkinElmer) in the presence of 5 mM EDTA in LANCE detection buffer (PerkinElmer) at a final concentration of 25 nM and 0.5 nM, respectively.
The assay reaction was initiated by the following: 2 μl of the mixture of 600 nM H3K9me1-biotin labeled peptide and 1.5 μM alpha-ketoglutaric acid with 2 μl of 11-point serial diluted inhibitor in 3% DMSO were added to each well of the plate, followed by the addition of 2 μl of 9 nM PHF8 to initiate the reaction. The reaction mixture was incubated at room temperature for 15 minutes, and terminated by the addition of 6 μl of 5 mM EDTA in LANCE detection buffer containing 50 nM Phycolink Streptavidin-allophycocyanin and 1 nM Europium-anti-unmodified H3K9/K27 antibody. Plates were read by EnVision Multilabel Reader in TR-FRET mode (excitation at 320 nm, emission at 615 nm and 665 nm) after 1 hour incubation at room temperature. A ratio was calculated (665/615) for each well and fitted to determine inhibition constant (IC50).
as §4
In general terms: In TR-FRET formats the signal depends on donor and acceptor labels being close together.

This is an account of results in US10071984B2, “Histone demethylase inhibitors” (Celgene Quanticel Research, Inc., priority 2014, dated 2018).

Molecules are shown by their SMILES. pIC50: −log10 of the molar value.

For orientation: pIC50 means the negative decadic logarithm of the IC50, by convention in mol/L. Read a low pIC50 as a large IC50.

Sequence of FBXL10 (Q8NHM5 1-650): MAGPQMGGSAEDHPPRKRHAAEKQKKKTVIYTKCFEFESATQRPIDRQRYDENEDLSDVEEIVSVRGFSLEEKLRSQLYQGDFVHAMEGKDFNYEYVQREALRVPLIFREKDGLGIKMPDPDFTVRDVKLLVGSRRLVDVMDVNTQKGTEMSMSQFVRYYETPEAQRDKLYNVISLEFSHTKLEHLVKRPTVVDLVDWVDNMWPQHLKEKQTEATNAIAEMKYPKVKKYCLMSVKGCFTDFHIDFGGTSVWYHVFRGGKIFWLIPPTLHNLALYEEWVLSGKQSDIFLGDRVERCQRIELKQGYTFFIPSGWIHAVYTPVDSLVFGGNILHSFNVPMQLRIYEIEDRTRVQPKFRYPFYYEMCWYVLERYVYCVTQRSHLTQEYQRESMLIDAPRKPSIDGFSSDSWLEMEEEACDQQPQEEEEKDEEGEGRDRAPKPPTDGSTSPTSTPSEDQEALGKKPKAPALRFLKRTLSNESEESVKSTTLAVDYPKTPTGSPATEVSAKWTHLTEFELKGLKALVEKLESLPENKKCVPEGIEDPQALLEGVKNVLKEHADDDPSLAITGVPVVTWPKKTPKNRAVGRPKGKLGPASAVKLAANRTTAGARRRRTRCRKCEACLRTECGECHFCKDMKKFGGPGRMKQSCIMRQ
Sequence of FBXL11 (Q9Y2K7 whole entry): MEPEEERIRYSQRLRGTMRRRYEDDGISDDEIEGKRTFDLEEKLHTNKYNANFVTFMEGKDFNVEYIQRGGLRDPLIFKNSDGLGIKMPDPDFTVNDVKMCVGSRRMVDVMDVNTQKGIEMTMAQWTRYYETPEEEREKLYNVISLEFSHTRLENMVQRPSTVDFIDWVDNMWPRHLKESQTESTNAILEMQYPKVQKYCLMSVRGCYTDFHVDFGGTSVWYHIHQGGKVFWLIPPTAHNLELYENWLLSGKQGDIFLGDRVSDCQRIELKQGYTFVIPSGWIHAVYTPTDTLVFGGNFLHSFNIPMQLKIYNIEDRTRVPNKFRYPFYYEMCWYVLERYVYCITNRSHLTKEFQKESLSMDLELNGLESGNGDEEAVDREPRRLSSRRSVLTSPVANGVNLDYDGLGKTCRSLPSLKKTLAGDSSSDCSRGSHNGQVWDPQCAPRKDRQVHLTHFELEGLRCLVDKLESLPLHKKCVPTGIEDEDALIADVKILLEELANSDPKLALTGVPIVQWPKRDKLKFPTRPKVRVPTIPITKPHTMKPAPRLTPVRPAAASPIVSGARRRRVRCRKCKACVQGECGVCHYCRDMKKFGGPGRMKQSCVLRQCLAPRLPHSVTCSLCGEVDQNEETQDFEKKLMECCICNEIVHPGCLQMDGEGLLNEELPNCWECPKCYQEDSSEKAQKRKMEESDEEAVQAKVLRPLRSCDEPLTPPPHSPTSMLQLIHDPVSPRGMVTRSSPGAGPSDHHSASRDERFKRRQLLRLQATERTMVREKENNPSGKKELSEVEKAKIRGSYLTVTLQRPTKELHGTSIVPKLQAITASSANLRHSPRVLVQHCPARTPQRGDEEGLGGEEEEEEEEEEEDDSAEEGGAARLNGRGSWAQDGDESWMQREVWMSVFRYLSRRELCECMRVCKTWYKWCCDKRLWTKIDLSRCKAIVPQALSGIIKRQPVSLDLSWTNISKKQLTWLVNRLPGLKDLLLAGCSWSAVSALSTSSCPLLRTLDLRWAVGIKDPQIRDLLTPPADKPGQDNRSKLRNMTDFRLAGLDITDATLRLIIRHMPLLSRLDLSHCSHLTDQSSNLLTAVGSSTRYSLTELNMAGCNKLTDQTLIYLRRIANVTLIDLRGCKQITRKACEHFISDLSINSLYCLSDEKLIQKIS
Sequence of PHF8 (Q9UPP1 37-1060): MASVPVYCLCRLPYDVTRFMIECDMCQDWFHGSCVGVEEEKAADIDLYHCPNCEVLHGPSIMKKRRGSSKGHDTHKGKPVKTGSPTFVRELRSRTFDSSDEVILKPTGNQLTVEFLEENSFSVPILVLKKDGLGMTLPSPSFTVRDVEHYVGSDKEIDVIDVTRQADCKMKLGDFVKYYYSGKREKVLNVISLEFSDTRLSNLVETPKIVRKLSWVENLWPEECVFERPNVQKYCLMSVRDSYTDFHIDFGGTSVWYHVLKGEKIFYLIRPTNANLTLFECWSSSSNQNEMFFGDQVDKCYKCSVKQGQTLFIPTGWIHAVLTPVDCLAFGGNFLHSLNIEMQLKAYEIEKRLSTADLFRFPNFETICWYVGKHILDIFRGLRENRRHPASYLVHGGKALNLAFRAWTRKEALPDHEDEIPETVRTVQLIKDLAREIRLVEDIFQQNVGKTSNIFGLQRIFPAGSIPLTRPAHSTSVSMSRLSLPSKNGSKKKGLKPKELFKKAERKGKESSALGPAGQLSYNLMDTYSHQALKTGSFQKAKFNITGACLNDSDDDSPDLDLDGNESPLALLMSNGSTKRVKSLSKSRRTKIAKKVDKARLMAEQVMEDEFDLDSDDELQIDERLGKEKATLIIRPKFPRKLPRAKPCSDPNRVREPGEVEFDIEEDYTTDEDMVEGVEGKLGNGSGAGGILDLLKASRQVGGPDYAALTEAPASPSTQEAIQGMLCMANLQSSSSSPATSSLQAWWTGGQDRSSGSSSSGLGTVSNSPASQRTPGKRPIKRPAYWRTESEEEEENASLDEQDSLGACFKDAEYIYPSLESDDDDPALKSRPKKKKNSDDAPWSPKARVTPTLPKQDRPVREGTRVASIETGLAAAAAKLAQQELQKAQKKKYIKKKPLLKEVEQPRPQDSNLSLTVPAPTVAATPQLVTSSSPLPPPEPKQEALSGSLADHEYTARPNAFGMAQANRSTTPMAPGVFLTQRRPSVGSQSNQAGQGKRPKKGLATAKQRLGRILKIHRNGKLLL

As for `Clc1ccccc1Cn1cnc(-c2cc(-c3c[nH]nn3)ccn2)c1` [Example 2, 2-[1-[(2-chlorophenyl)methyl]imidazol-4-yl]-4-(1H-triazol-4-yl)pyridine], the results for the pIC50 against FBXL10, against FBXL11 and at PHF8 were at least 7.00, 6.00 to 7.00 and 6.00 to 7.00, respectively.
As for `Cn1cnc(-c2cc(-c3c[nH]nn3)ccn2)c1-c1ccc(F)cc1OCC1CC1` [Example 4, 2-[5-[2-(cyclopropylmethoxy)-4-fluorophenyl]-1-methylimidazol-4-yl]-4-(1H-triazol-4-yl)pyridine], the pIC50 is at least 7.00 against FBXL10, at least 7.00 on FBXL11 and 5.00 to 6.00 at PHF8.
With `CC(c1ccccc1)n1cnc(-c2cc(-c3c[nH]nn3)ccn2)c1` (centres unmarked) [Example 5, 2-[1-(1-phenylethyl)imidazol-4-yl]-4-(1H-triazol-4-yl)pyridine], the pIC50 on FBXL10 was at least 7.00; against FBXL11, at least 7.00; at PHF8, 6.00 to 7.00.
Consider `Clc1ccccc1CCn1cnc(-c2cc(-c3c[nH]nn3)ccn2)c1` [Example 6, 2-[1-[2-(2-chlorophenyl)ethyl]imidazol-4-yl]-4-(1H-triazol-4-yl)pyridine], for which the pIC50 against FBXL10, on FBXL11 and at PHF8 was at least 7.00 each time.
Take `COc1ccccc1CCn1cnc(-c2cc(-c3c[nH]nn3)ccn2)c1` [Example 7, 2-[1-[2-(2-methoxyphenyl)ethyl]imidazol-4-yl]-4-(1H-triazol-4-yl)pyridine]: the results for the negative-log IC50 (pIC50) on FBXL10, against FBXL11 and on PHF8 were at least 7.00, at least 7.00 and 6.00 to 7.00, respectively.
As for `c1ccc2c(c1)CCCC2Cn1cnc(-c2cc(-c3c[nH]nn3)ccn2)c1` (centres unmarked) [Example 8, 2-[1-(1,2,3,4-tetrahydronaphthalen-1-ylmethyl)imidazol-4-yl]-4-(1H-triazol-4-yl)pyridine], the pIC50 on FBXL10 was at least 7.00; on FBXL11 it was at least 7.00; on PHF8 it was 6.00 to 7.00.
Take `CCOc1ccccc1CCn1cnc(-c2cc(-c3c[nH]nn3)ccn2)c1` [Example 9, 2-[1-[2-(2-ethoxyphenyl)ethyl]imidazol-4-yl]-4-(1H-triazol-4-yl)pyridine]: the negative-log IC50 (pIC50) is at least 7.00 on FBXL10, at least 7.00 at FBXL11 and 6.00 to 7.00 against PHF8.
For `Clc1cccc(Cn2cnc(-c3cc(-c4c[nH]nn4)ccn3)c2)c1Cl` [Example 21, 2-[1-[(2,3-dichlorophenyl)methyl]imidazol-4-yl]-4-(1H-triazol-4-yl)pyridine], the pIC50 at FBXL10 is at least 7.00; against FBXL11 it was at least 7.00; against PHF8 it was 6.00 to 7.00.
As for `FC(F)(F)c1cccc(Cn2cnc(-c3cc(-c4c[nH]nn4)ccn3)c2)c1Cl` [Example 22, 2-[1-[[2-chloro-3-(trifluoromethyl)phenyl]methyl]imidazol-4-yl]-4-(1H-triazol-4-yl)pyridine], the values for the negative logarithm of the IC50 (pIC50) against FBXL10, on FBXL11 and at PHF8 were at least 7.00, at least 7.00 and 6.00 to 7.00, respectively.
On to `c1ccc2c(CCn3cnc(-c4cc(-c5c[nH]nn5)ccn4)c3)cccc2c1` [Example 23, 2-[1-(2-naphthalen-1-ylethyl)imidazol-4-yl]-4-(1H-triazol-4-yl)pyridine], for which the pIC50 is at least 7.00 on FBXL10, at least 7.00 against FBXL11 and 6.00 to 7.00 on PHF8.
Regarding `CCOc1cc(-c2c(-c3cc(-c4c[nH]nn4)ccn3)ncn2C)ccc1F` [Example 25, 2-[5-(3-ethoxy-4-fluorophenyl)-1-methylimidazol-4-yl]-4-(1H-triazol-4-yl)pyridine], the pIC50 against FBXL10 was at least 7.00; against FBXL11, 6.00 to 7.00; against PHF8, 5.00 to 6.00.
Turning to `Ic1[nH]nnc1-c1ccnc(-c2cn(CCc3cccc4ccccc34)cn2)c1` [Example 38, 4-(5-iodo-1H-triazol-4-yl)-2-[1-(2-naphthalen-1-ylethyl)imidazol-4-yl]pyridine], the results for the negative logarithm of the IC50 (pIC50) against FBXL10 and against PHF8 were at least 7.00 and under 5.00, respectively.
Regarding `Cn1cnc(-c2cc(-c3nn[nH]c3C#N)ccn2)c1-c1ccc(F)cc1OCC1CC1` [Example 39, 4-[2-[5-[2-(cyclopropylmethoxy)-4-fluorophenyl]-1-methylimidazol-4-yl]pyridin-4-yl]-1H-triazole-5-carbonitrile], the pIC50 was at least 7.00 at FBXL10 and 5.00 to 6.00 against PHF8.
In the case of `Cn1cnc(-c2cc(-c3nn[nH]c3Cl)ccn2)c1-c1ccc(F)cc1OCC1CC1` [Example 40, 4-(5-chloro-1H-triazol-4-yl)-2-[5-[2-(cyclopropylmethoxy)-4-fluorophenyl]-1-methylimidazol-4-yl]pyridine], the values for the negative-log IC50 (pIC50) on FBXL10 and against PHF8 were at least 7.00 and under 5.00, respectively.
With `Cn1cnc(-c2cc(-c3nn[nH]c3F)ccn2)c1-c1ccc(F)cc1OCC1CC1` [Example 41, 2-[5-[2-(cyclopropylmethoxy)-4-fluorophenyl]-1-methylimidazol-4-yl]-4-(5-fluoro-1H-triazol-4-yl)pyridine], the pIC50 at FBXL10 was at least 7.00; against PHF8 it was 5.00 to 6.00.
